Data: ChEMBL document CHEMBL5244223, “l,8-Naphthalimide based DNA intercalators and anticancer agents. A systematic review from 2007 to 2017” (Eur J Med Chem, 2018)

Key:
KM12 = assay: Cytotoxicity against human KM12 cells assessed as cell growth inhibition incubated for 48 hrs by sulforhodamine B reagent assay; assay type: functional, cell-based; details: KM12, 48 h
SNB-75 = assay: Cytotoxicity against human SNB-75 cells assessed as cell growth inhibition incubated for 48 hrs by sulforhodamine B reagent assay; assay type: functional, cell-based; details: SNB-75, 48 h
SK-MEL-5 = assay: Cytotoxicity against human SK-MEL-5 cells assessed as cell growth inhibition incubated for 48 hrs by sulforhodamine B reagent assay; assay type: functional, cell-based; details: SK-MEL-5, 48 h
RXF 393 = assay: Cytotoxicity against human RXF 393 cells assessed as cell growth inhibition incubated for 48 hrs by sulforhodamine B reagent assay; assay type: functional, cell-based; details: RXF 393, 48 h
Malme-3M = assay: Cytotoxicity against human Malme-3M cells assessed as cell growth inhibition incubated for 48 hrs by sulforhodamine B reagent assay; assay type: functional, cell-based
MDA-MB-231 = assay: Cytotoxicity against human MDA-MB-231 cells assessed as cell growth inhibition incubated for 48 hrs by sulforhodamine B reagent assay; assay type: functional, cell-based; details: MDA-MB-231, 48 h
SK-MEL-28 = assay: Cytotoxicity against human SK-MEL-28 cells assessed as cell growth inhibition incubated for 48 hrs by sulforhodamine B reagent assay; assay type: functional, cell-based; details: SK-MEL-28, 48 h
BT-549 = assay: Cytotoxicity against human BT-549 cells assessed as cell growth inhibition incubated for 48 hrs by sulforhodamine B reagent assay; assay type: functional, cell-based; details: BT-549, 48 h
HCT-116 [1] = assay: Cytotoxicity against human HCT-116 cells assessed as cell growth inhibition incubated for 48 hrs by sulforhodamine B reagent assay; assay type: functional, cell-based; details: HCT-116, 48 h
NCI-H322M = assay: Cytotoxicity against human NCI-H322M cells assessed as cell growth inhibition incubated for 48 hrs by sulforhodamine B reagent assay; assay type: functional, cell-based
DU-145 = assay: Cytotoxicity against human DU-145 cells assessed as cell growth inhibition incubated for 48 hrs by sulforhodamine B reagent assay; assay type: functional, cell-based; details: DU-145, 48 h
SW-620 = assay: Cytotoxicity against human SW620 cells assessed as cell growth inhibition incubated for 48 hrs by sulforhodamine B reagent assay; assay type: functional, cell-based; details: SW-620, 48 h
Hs-578T = assay: Cytotoxicity against human Hs-578T cells assessed as cell growth inhibition incubated for 48 hrs by sulforhodamine B reagent assay; assay type: functional, cell-based
EKVX = assay: Cytotoxicity against human EKVX cells assessed as cell growth inhibition incubated for 48 hrs by sulforhodamine B reagent assay; assay type: functional, cell-based
K562 [2] = assay: Cytotoxicity against human K562 cells assessed as cell growth inhibition incubated for 48 hrs by sulforhodamine B reagent assay; assay type: functional, cell-based; details: K562, 48 h
U-251 = assay: Cytotoxicity against human U-251 cells assessed as cell growth inhibition incubated for 48 hrs by sulforhodamine B reagent assay; assay type: functional, cell-based; details: U-251, 48 h
SF-539 = assay: Cytotoxicity against human SF-539 cells assessed as cell growth inhibition incubated for 48 hrs by sulforhodamine B reagent assay; assay type: functional, cell-based; details: SF-539, 48 h
T47D = assay: Cytotoxicity against human T47D cells assessed as cell growth inhibition incubated for 48 hrs by sulforhodamine B reagent assay; assay type: functional, cell-based
786-0 = assay: Cytotoxicity against human 786-0 cells assessed as cell growth inhibition incubated for 48 hrs by sulforhodamine B reagent assay; assay type: functional, cell-based; details: 786-0, 48 h
OVCAR-4 = assay: Cytotoxicity against human OVCAR-4 cells assessed as cell growth inhibition incubated for 48 hrs by sulforhodamine B reagent assay; assay type: functional, cell-based; details: OVCAR-4, 48 h
MCF7 [3] = assay: Cytotoxicity against human MCF7 cells assessed as cell growth inhibition incubated for 48 hrs by sulforhodamine B reagent assay; assay type: functional, cell-based; details: MCF7, 48 h
Sarcoma-180 [4] = assay: Inhibition of DNA synthesis in mouse Sarcoma-180 cells at 8 uM incubated for 30 mins by [3H]-thymidine incorporation based scintillation counter analysis; assay type: functional; details: Sarcoma-180, 0.5 h
Sarcoma-180 [5] = assay: Antitumor activity against mouse Sarcoma-180 cells xenografted in Swiss mouse assessed as T/C ratio at 25 mg/kg, po daily measured upto 7 days; assay type: functional; details: time <= 7 day
Sarcoma-180 [6] = assay: Inhibition of RNA synthesis in mouse Sarcoma-180 cells at 8 uM incubated for 60 mins by [3H]-uridine incorporation based scintillation counter analysis; assay type: functional; details: Sarcoma-180, 1 h
Ehrlich = assay: Antitumor activity against mouse EAC cell xenografted in Swiss mouse assessed as T/C ratio at 25 mg/kg, po daily measured upto 7 days; assay type: functional; details: time <= 7 day
Calf thymus DNA = assay: Binding affinity to calf thymus DNA assessed as apparent binding constant by fluorescence based EtBr-displacement assay; assay type: nucleic-acid assay; details: Bos taurus
Jurkat = assay: Antiproliferative activity against human Jurkat cells assessed as inhibition of cell proliferation incubated for 72 hrs by MTT assay; assay type: functional, cell-based
A549 = assay: Antiproliferative activity against human A549 cells assessed as inhibition of cell proliferation incubated for 72 hrs by MTT assay; assay type: functional, cell-based; details: A549, 72 h
MCF7 [7] = assay: Antiproliferative activity against human MCF7 cells assessed as inhibition of cell proliferation incubated for 72 hrs by MTT assay; assay type: functional, cell-based; details: MCF7, 72 h
Clupea harengus = assay: Binding affinity to herring DNA assessed as binding constant incubated for 30 mins by fluorescence based EtBr-UV absorption spectral analysis
K562 [8] = assay: Cytotoxicity against human K562 cells assessed as inhibition of cell growth incubated for 48 hrs by MTT assay; assay type: functional, cell-based; details: K562, 48 h
HCT-116 [9] = assay: Cytotoxicity against human HCT-116 cells assessed as inhibition of cell growth incubated for 48 hrs by MTT assay; assay type: functional, cell-based; details: HCT-116, 48 h
SMMC-7721 = assay: Cytotoxicity against human SMMC-7721 cells assessed as inhibition of cell growth incubated for 48 hrs by MTT assay; assay type: functional, cell-based; details: SMMC-7721, 48 h
Mus musculus = assay: Antitumor activity against mouse H22 cells xenografted in Kunming mouse assessed as decrease in tumor growth at 5 mg/kg administered as single injection via caudal vein for 7 consecutive days; assay type: functional; design: scale not given: the % may be the effect or the level left
PANC-1 = assay: Cytotoxicity against human PANC-1 cells assessed as inhibition of cell growth incubated for 24 hrs by XTT assay; assay type: functional, cell-based; details: PANC-1, 24 h
HCT-116 [10] = assay: Cytotoxicity against human HCT-116 cells assessed as inhibition of cell growth incubated for 24 hrs by XTT assay; assay type: functional, cell-based; details: HCT-116, 24 h

In the case of O=C1c2cccc3cccc(c23)C(=O)N1CCCCOc1ccc(-c2nc3ccc(N4CCOCC4)cc3[nH]2)cc1, the IC50 (KM12) is reported as 110 nM, the IC50 (SNB-75) is reported as 110 nM and the IC50 (SK-MEL-5) is reported as 110 nM. It also gave an IC50 (RXF 393) of 110 nM, an IC50 (Malme-3M) of 110 nM and an IC50 (MDA-MB-231) of 110 nM. For the same compound, the IC50 (SK-MEL-28) was 110 nM, the IC50 (BT-549) was 110 nM and the IC50 (HCT-116 [1]) was 110 nM. For the same compound, the IC50 (NCI-H322M) was 110 nM, the IC50 (DU-145) was 110 nM and the IC50 (SW-620) was 110 nM. For the same compound, the IC50 (Hs-578T) was 110 nM, the IC50 (EKVX) was 110 nM and the IC50 (K562 [2]) was 110 nM. The IC50 (U-251) was 110 nM, the IC50 (SF-539) was 110 nM and the IC50 (T47D) was 110 nM. For the same compound, the IC50 (786-0) was 110 nM, the IC50 (OVCAR-4) was 110 nM and the IC50 (MCF7 [3]) was 110 nM.

With O=NN(CCCl)C(=O)NC1CCCCC1 [LOMUSTINE] the inhibition at 8 µM (Sarcoma-180 [4]) was 64%, the T/C (Sarcoma-180 [5]) was >279% and the inhibition at 8 µM (Sarcoma-180 [6]) was 90%. The T/C (Ehrlich) was >240%.

For O=C1c2cccc3cccc(c23)C(=O)N1CCCCCCNCc1ccccn1, the Kapp (Calf thymus DNA) was 3.1 10^6/M, the IC50 (Jurkat) was 5580 nM and the IC50 (A549) was 5670 nM. The IC50 (MCF7 [7]) was 5670 nM.

For NCCCCNCCCN1C(=O)c2cccc3cccc(c23)C1=O, the Kb (Clupea harengus) was 6.06 10^3/M, the IC50 (K562 [8]) was 5450 nM and the IC50 (HCT-116 [9]) was 5450 nM. The IC50 (SMMC-7721) was 5450 nM.

CN(C)CCN1C(=O)c2cccc3cc(N)cc(c23)C1=O [AMONAFIDE] was tested, and the Activity (Mus musculus) was 43.73%, the IC50 (PANC-1) was 2700 nM and the IC50 (HCT-116 [10]) was 2700 nM.
